Test results: patent US4463171A, “Derivatives of macrolide antibiotics” (Sanraku-Ocean Co., Ltd., priority 1982, dated 1984)
Converted amounts (≈) assume the structure as drawn.

How the values were obtained:
[1] = test system: Staphylococcus aureus 209P; assay: Antibacterial activity (minimum inhibitory concentration), tube dilution method; type: cell-based; details: tube dilution method, brain heart infusion broth (pH 7.5), read-out: minimum inhibitory concentration, Staphylococcus aureus 209P
Protocol: (§1) The antibacterial activities of some typical compounds of this invention were measured by a tube dilution method in a brain heart infusion broth (pH 7.5) as a culture medium.

[2] = test system: Staphylococcus aureus MS9861; assay: as above; type: cell-based; details: Staphylococcus aureus, MS9861; tube dilution method, brain heart infusion broth (pH 7.5); read-out: minimum inhibitory concentration, Staphylococcus aureus MS9861
Protocol: as §1

[3] = test system: Bacillus subtilis NRRL B558; assay: as above; type: cell-based; details: Bacillus subtilis, NRRLB558; tube dilution method, brain heart infusion broth (pH 7.5); read-out: minimum inhibitory concentration, Bacillus subtilis NRRL B558
Protocol: as §1

[4] = test system: Klebsiella pneumoniae PCI602; assay: as above; type: cell-based; details: PCI602, tube dilution method, brain heart infusion broth (pH 7.5), read-out: minimum inhibitory concentration, Klebsiella pneumoniae PCI602
Protocol: as §1

[5] = cited from earlier work
[6] = cited from earlier work; remark: listed apart in the source

SMILES	MIC [1] [µg/mL]	MIC [2] [µg/mL]	MIC [3] [µg/mL]	MIC [4] [µg/mL]	absorbability and excretability in vivo [5]	antibacterial activity in vitro [6]
CCC1OC(=O)CC(O)C(C)C(OC2OC(C)C(OC3CC(C)(O)C(OC(=O)CSc4ccncc4)C(C)O3)C(N(C)C)C2O)C(CC=O)CC(C)C(=O)C=CC(C)=CC1CBr (stereo not shown) [R1=H, R3=drawing 70, AR4=Br]	0.2 (≈ 0.209 µM)	0.8 (≈ 0.837 µM)	< 0.2	12.5 (≈ 13.1 µM)	–	–
CCC1OC(=O)CC(O)C(C)C(OC2OC(C)C(OC3CC(C)(O)C(OC(=O)CSc4ccccc4)C(C)O3)C(N(C)C)C2O)C(CC=O)CC(C)C(=O)C=CC(C)=CC1COC(C)=O (stereo not shown) [R1=H, R3=drawing 76, AR4=OCOCH3]	0.8 (≈ 0.856 µM)	1.6 (≈ 1.71 µM)	0.2 (≈ 0.214 µM)	100 (≈ 107 µM)	–	–
CC[C@H]1OC(=O)C[C@@H](O)[C@H](C)[C@@H](O[C@@H]2O[C@H](C)[C@@H](O[C@H]3C[C@@](C)(O)[C@@H](O)[C@H](C)O3)[C@H](N(C)C)[C@H]2O)[C@@H](CC=O)C[C@@H](C)C(=O)/C=C/C(C)=C/[C@@H]1CO[C@@H]1O[C@H](C)[C@@H](O)[C@@H](OC)[C@H]1OC [tylosin]	–	–	–	–	low	high antibacterial activity in vitro

The next lines start with results.

MIC [1] [µg/mL]	MIC [2] [µg/mL]	MIC [3] [µg/mL]	MIC [4] [µg/mL]	SMILES	absorbability and excretability in vivo [5]	antibacterial activity in vitro [6]
0.8 (≈ 0.922 µM)	6.3 (≈ 7.26 µM)	1.6 (≈ 1.84 µM)	3.1 (≈ 3.57 µM)	CCC1OC(=O)CC(O)C(C)C(OC2OC(C)C(OC3CC(C)(O)C(OC(=O)CC(C)C)C(C)O3)C(N(C)C)C2O)C(CC=O)CC(C)C(=O)C=CC(C)=CC1COC(C)=O (stereo not shown) [R1=H, R3=drawing 75, AR4=OCOCH3, 23-O-Acetyl-4"-O-isovaleryl-YO-9010]	–	–
1.6 (≈ 1.76 µM)	12.5 (≈ 13.7 µM)	0.8 (≈ 0.879 µM)	6.3 (≈ 6.92 µM)	CCC1OC(=O)CC(O)C(C)C(OC2OC(C)C(OC3CC(C)(O)C(OC(=O)CC(C)C)C(C)O3)C(N(C)C)C2O)C(CC=O)CC(C)C(=O)C=CC(C)=CC1COC(=O)CC(C)C (stereo not shown) [R1=H, R3=drawing 77, AR4=drawing 78]	–	–
3.1 (≈ 3.38 µM)	6.3 (≈ 6.86 µM)	3.1 (≈ 3.38 µM)	> 100	CCC1OC(=O)CC(O)C(C)C(OC2OC(C)C(OC3CC(C)(O)C(OC(=O)CC(C)C)C(C)O3)C(N(C)C)C2O)C(CC=O)CC(C)C(=O)C=CC(C)=CC1CSc1ccccc1 (stereo not shown) [R1=H, R3=drawing 82, AR4=drawing 83]	–	–
